Measured values: US7816408B2, “Calcium receptor active compounds” (NPS Pharmaceuticals, Inc., priority 2002, dated 2010)

Biological target: T1, human calcium receptor (Homo sapiens, UniProt P41180)
T1 construct: expressed in transfected cells; host or cells: HEK293
T1 sequence (P41180 20-1078): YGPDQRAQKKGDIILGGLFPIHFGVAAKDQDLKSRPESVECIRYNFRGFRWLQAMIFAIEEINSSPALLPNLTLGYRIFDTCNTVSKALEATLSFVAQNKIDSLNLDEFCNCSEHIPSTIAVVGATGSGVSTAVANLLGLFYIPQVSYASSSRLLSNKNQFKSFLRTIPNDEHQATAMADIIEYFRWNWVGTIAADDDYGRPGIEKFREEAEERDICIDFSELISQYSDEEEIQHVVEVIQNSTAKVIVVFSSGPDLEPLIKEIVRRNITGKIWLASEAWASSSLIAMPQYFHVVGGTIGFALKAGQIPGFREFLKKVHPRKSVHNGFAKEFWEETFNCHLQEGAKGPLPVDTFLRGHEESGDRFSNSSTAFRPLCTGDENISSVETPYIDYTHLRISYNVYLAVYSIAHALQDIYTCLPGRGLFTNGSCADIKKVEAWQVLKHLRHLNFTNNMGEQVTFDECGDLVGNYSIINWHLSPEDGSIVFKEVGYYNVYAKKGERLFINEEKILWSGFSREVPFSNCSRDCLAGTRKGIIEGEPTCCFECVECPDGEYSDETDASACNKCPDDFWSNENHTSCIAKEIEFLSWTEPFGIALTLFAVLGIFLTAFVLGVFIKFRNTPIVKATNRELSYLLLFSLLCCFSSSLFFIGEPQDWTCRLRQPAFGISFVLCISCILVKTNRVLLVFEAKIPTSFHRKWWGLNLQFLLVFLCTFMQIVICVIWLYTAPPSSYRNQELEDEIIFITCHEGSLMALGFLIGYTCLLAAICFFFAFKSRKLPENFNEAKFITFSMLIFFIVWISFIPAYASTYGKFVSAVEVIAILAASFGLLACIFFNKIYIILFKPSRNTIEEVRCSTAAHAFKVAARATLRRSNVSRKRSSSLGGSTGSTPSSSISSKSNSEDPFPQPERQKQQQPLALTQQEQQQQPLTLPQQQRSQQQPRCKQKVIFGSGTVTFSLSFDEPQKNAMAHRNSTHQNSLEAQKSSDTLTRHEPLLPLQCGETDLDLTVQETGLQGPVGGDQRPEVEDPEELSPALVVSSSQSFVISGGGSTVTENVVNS
Test: Activity on calcium receptors: fluo-3 fluorescence in HEK293 cells transfected with human calcium receptor gene
Assay type: cell-based
Details: HEK293 cells transfected with plasmid pHuPCaR4.0 (human calcium receptor gene), loaded with fluo-3; 1 mM CaCl2, 1 mM MgCl2
Description: The activities of the compounds of the present invention on calcium receptors were measured. The measurement was performed in accordance with the method described in Example 4 of Nemeth et al., PCT/US95/13704 (International Publication No. WO96/12697). In brief, HEK293 cells were transfected with a plasmid pHuPCaR4.0 containing a human calcium receptor gene and loaded with fluo-3. The loading was carried out by incubating the cells at 37° C. for 1 hour in Dulbecco's modified Eagle's medium which contained about 5 μM of fluo-3/AM and had been buffered with 20 mM HEPES. Next, the cells were rinsed with Hank's balanced salt solution which contained 1 mM CaCl2 and 1 mM MgCl2 and had been buffered with 20 mM HEPES. Then each test compound was added to the cells and the fluorescence was measured with the use of an excitation wavelength of 485 nm and an emission wavelength of 540 nm.

Row | EC50 [nM] | SMILES
1 | 7600 | COc1cccc(C(C)NCCCCCCOc2ccccc2Cl)c1 (stereo not drawn) [Compound 6]
2 | 260 | COc1cccc([C@@H](C)NCCSc2cc(Cl)ccc2Cl)c1 [Compound K-2066]
3 | 39 | C[C@@H](NCCC(=O)N(Cc1ccc(OC(F)(F)F)cc1)Cc1ccc(OC(F)(F)F)cc1)c1cccc2ccccc12 [Compound K-2257, N1,N1-di[4-(trifluoromethoxy)benzyl]-3-{[(1R)-1-(1-naphthyl)ethyl]amino}propanamide]
4 | 1020 | COc1cccc(C(C)NCCCOc2ccc3c(c2)Cc2ccccc2-3)c1 (stereo not drawn) [Compound 59]
5 | 3200 | COc1cccc(C(C)NCCCNC(C)c2cccc(OC)c2)c1 (stereo not drawn) [Compound 88]
6 | 130 | COc1cccc(C(C)NCCCCSc2c(Cl)cccc2Cl)c1 (stereo not drawn) [Compound K-2085]
7 | 150 | COc1cccc(C(C)NCCCSc2cccc(Cl)c2)c1 (stereo not drawn) [Compound K-2061]
8 | 61 | COc1cccc(C(C)NCCCCCSc2ccc([N+](=O)[O-])cc2)c1 (stereo not drawn) [Compound K-2034]
9 | 120 | C[C@@H](NCCCCSc1ccc(C(F)(F)F)cc1)c1cccc2ccccc12 [Compound K-2246, N-[(1R)-1-(1-naphthyl)ethyl]-N-(4-{[4-(trifluoromethyl)phenyl]thio}butyl)amine]
10 | 870 | COc1cccc(C(C)NCCCCCCSc2cccc(C(F)(F)F)c2)c1 (stereo not drawn) [Compound K-2012]
11 | 2.4 | C[C@@H](NCCC(=O)N(Cc1ccc(C(F)(F)F)cc1)Cc1ccc(C(F)(F)F)cc1)c1cccc2ccccc12 [Compound K-2259, N1,N1-di[4-(trifluoromethyl)benzyl]-3-{[(1R)-1-(1-naphthyl)ethyl]amino}propanamide]
12 | 1000 | COc1cccc(C(C)NCCCCCOc2cccc(Cl)c2)c1 (stereo not drawn) [Compound 10]
13 | 1200 | COc1cccc(C(C)NCCCCCCOc2cccc(Cl)c2)c1 (stereo not drawn) [Compound 12]
14 | 39 | COc1cccc(C(C)NCCCCSc2ccc(C(F)(F)F)cc2)c1 (stereo not drawn) [Compound K-2056]
15 | 170 | COc1cccc(C(C)NCCCSc2ccc(Cl)c(Cl)c2)c1 (stereo not drawn) [Compound K-2078]
16 | 200 | COc1cccc(C(C)NCCCCSc2ccc(Cl)c(Cl)c2)c1 (stereo not drawn) [Compound K-2079]
17 | 7200 | COc1cccc(C(C)NCCCOc2ccc3ccccc3c2)c1 (stereo not drawn) [Compound 74]
18 | 770 | COc1cccc(C(C)NCCCCCSc2ccc(Cl)c(Cl)c2)c1 (stereo not drawn) [Compound K-2080]
19 | 1000 | COc1cccc([C@@H](C)NCCCOc2ccc(-c3ccccc3)cc2)c1 [Compound 83]
20 | 2810 | COc1cccc(C(C)NCCCCCCCSc2ccc(Cl)c(Cl)c2)c1 (stereo not drawn) [Compound K-2082]

Row | SMILES | EC50 [nM]
21 | CC(C)c1ccccc1SCCNC(C)c1cccc2ccccc12 (stereo not drawn) [Compound S-202] | 150
22 | Cc1cc(C)cc(SCCNC(C)c2cccc3ccccc23)c1 (stereo not drawn) [Compound S-64] | 98
23 | C[C@@H](NCCCCCCCSc1c(F)c(F)cc(F)c1F)c1cccc2ccccc12 [Compound S-165] | 150
24 | CC(NCCCNC(C)c1cccc2ccccc12)c1cccc2ccccc12 (stereo not drawn) [Compound 93] | 110
25 | Cc1cc(C)cc(SCCCCCCCN[C@H](C)c2cccc3ccccc23)c1 [Compound S-69] | 310
26 | Cc1ccc(C)c(SCCCCCCCCCCCCNC(C)c2cccc3ccccc23)c1 (stereo not drawn) [Compound S-16] | 110
27 | COc1cccc(C(C)NCCCCCSc2ccccc2Cl)c1 (stereo not drawn) [Compound 24] | 440
28 | C[C@@H](NCCC(=O)N(Cc1ccccc1)Cc1cccc(Cl)c1)c1cccc2ccccc12 [Compound K-2252] | 18
29 | C[C@@H](NCCSc1cc(Cl)ccc1Cl)c1cccc2ccccc12 [Compound K-2117, (R)-N-[1-(1′-naphthyl)ethyl]-2-(2′,5′-dichlorophenylthio)ethylamine] | 43

Test system: normal male SD rats
Test: Plasma Ca^2+ level of rats after single oral administration
Assay type: in vivo
Details: rat, mean of six animals, 1 hr after single oral dose 30 μmol/kg; vehicle 10% cyclodextrin (** 1% sodium-CMC)
Description: The compound of the present invention was administered to rats so as to examine the effects of the compound on the plasma calcium ion level and serum PTH level. The test was performed by orally administering single dose of the compound of the invention or a control compound to normal male SD rats with six animals in each group.
To the group 1 was administered as a control a 10% cyclodextrin aqueous solution in a dose of 2.5 ml/kg. To the group 2 was administered as a reference (R)-N-(3-(2-chlorophenyl)propyl)-1-(3-methoxyphenyl)ethylamine (KRN568) dissolved in a 10% cyclodextrin aqueous solution in a dose of 30 μmol/kg. To the group 3 was administered the compound of the present invention dissolved in a 10% cyclodextrin aqueous solution in a dose of 30 μmol/kg, provided that 1% sodium-CMC aqueous solution was used in place of 10% cyclodextrin aqueous solution for the compounds marked with ** in Table 2.
Blood of each rat was collected from the tail tip before the administration and 30 minutes and 1, 2, 4, 8 and 24 hours thereafter (or at the time indicated in Table 2), and the plasma Ca^2+ level and serum PTH level were measured. The data of the serum PTH level were statistically processed by the multiple comparison analysis in accordance with Steel's calibration by using the group 1 as the control.

Row | SMILES | Plasma Ca^2+ (mmol/l) 1 hr [mmol/L]
30 | COc1cccc([C@@H](C)NCCCc2ccccc2Cl)c1 [KRN568, (R)-N-(3-(2-chlorophenyl)propyl)-1-(3-methoxyphenyl)ethylamine, reference compound] | 1.305

Same assay, conditions: rat, mean of six animals, 2 hr after single oral dose 30 μmol/kg; vehicle 10% cyclodextrin (** 1% sodium-CMC)

Row | SMILES | Plasma Ca^2+ (mmol/l) 2 hr [mmol/L]
31 | COc1cccc([C@@H](C)NCCCc2ccccc2Cl)c1 [KRN568, (R)-N-(3-(2-chlorophenyl)propyl)-1-(3-methoxyphenyl)ethylamine, reference compound] | 1.237

Same assay, conditions: rat, mean of six animals, 4 hr after single oral dose 30 μmol/kg; vehicle 10% cyclodextrin (** 1% sodium-CMC)

Row | SMILES | Plasma Ca^2+ (mmol/l) 4 hr [mmol/L]
32 | COc1cccc([C@@H](C)NCCCc2ccccc2Cl)c1 [KRN568, (R)-N-(3-(2-chlorophenyl)propyl)-1-(3-methoxyphenyl)ethylamine, reference compound] | 1.290

Same assay, conditions: rat, mean of six animals, 8 hr after single oral dose 30 μmol/kg; vehicle 10% cyclodextrin (** 1% sodium-CMC)

Row | SMILES | Plasma Ca^2+ (mmol/l) 8 hr [mmol/L]
33 | COc1cccc([C@@H](C)NCCCc2ccccc2Cl)c1 [KRN568, (R)-N-(3-(2-chlorophenyl)propyl)-1-(3-methoxyphenyl)ethylamine, reference compound] | 1.340
